From publication PMC3402085 (ACS medicinal chemistry letters, 2012)

How the values were obtained:
[1] = tested on: PC-12 cells expressing mutant G93A SOD1; experiment: Mutant SOD1-induced cytotoxicity protection assay; type: cell-based; conditions: result in words
primary cortical neurons = experiment: Primary cortical neuron protection assay; type: cell-based; conditions: result in words
[2] = tested on: PC-12 cells expressing mutant G93A SOD1; conditions: result in words; previously prepared compound; cited from earlier work

C[C@H](Oc1cc(C(F)(F)F)cc(C(F)(F)F)c1)C1CC(=O)CC(=O)C1 [1b]
protection against mutant SOD1 induced toxicity in PC-12 cells [1]: protective
activity in cortical neurons (primary cortical neurons): active

O=C1CC(=O)CC([C@@H]2C[C@H]2c2cc(C(F)(F)F)cc(C(F)(F)F)c2)C1 [2b]
protection against mutant SOD1 induced toxicity in PC-12 cells [1]: protective
activity in cortical neurons (primary cortical neurons): active

O=C1CC(=O)CC(c2cc(C(F)(F)F)cc(C(F)(F)F)c2)C1 [compound 13]
inhibition of protein aggregation in PC-12 cells expressing mutant G93A SOD1 [2]: potent inhibitor
